Laboratory results as given in patent publication US20240024273A1, “TOPICAL ADMINISTRATION OF 2-(DIETHYLAMINO)ETHYL 2-(4-ISOBUTYLPHENYL)PROPRIONATE FOR TREATMENT OF DISEASES” (TECHFIELDS PHARMA CO., LTD., priority 2020, published 2024).

Tests used:
[1] = system: osteoarthritis of the knee; assay: Second Phase 2 study: WOMAC (VAS) pain subscale score; type: in vivo, human
Text: (§1) This is a Phase 2, multicenter, randomized, double blind (within dose), Ibuprofen-placebo controlled, parallel group, dose range finding study to evaluate the efficacy, safety, and PK of 2-(diethylamino)ethyl 2-(4-isobutylphenyl)propionate spray in adult subjects with clinically symptomatic OA of the knee. For subjects with bilateral knee pain, both knees will be treated, but the most symptomatic knee (ie, the most painful knee as measured by the Western Ontario and McMaster University Osteoarthritis Index [WOMAC® 3.1] pain subscale score at Screening) will be designated as the target knee for efficacy analyses. For subjects with unilateral knee pain, only the symptomatic (target) knee will be treated.
(§2) The VAS version of the WOMAC will be used for the Primary and Secondary Efficacy Endpoints. Efficacy endpoints will be assessed at Screening and Baseline (Day 1) and at the Week 2, Week 4, Week 8, and Week 12/EOS visits.
The Primary Efficacy Endpoint is the change from Baseline in the WOMAC (VAS) pain subscale score for the target knee at […] of treatment.
(§3) 4.9.2. Secondary Efficacy Endpoints: • 1. Change from Baseline in the WOMAC (VAS) pain subscale score for the target knee at 2, 8, and 12 weeks of treatment; • 2. Change from Baseline in the WOMAC (VAS) stiffness subscale scores for the target knee and WOMAC (VAS) functional ability subscale scores at 2, 4, 8, and 12 weeks of treatment; • 3. Change from Baseline in the overall WOMAC (VAS) score at 2, 4, 8, and 12 weeks of treatment; • 4. Subject's global assessment of disease status of the target knee at 2, 4, 8, and 12 weeks of treatment; • 5. Subject's global assessment of response to therapy of the target knee at 2, 4, 8, and 12 weeks of treatment; • 6. Amount of rescue medication (acetaminophen) consumed per day for target knee pain.
The Primary Efficacy Endpoint is change from Baseline in the WOMAC (VAS) pain subscale score for the target knee at 4 weeks of treatment, and will be analyzed using an analysis of covariance (ANCOVA). Treatment will be included as a fixed class effect and WOMAC Baseline pain subscale score as covariates. The primary comparisons of interest will be the difference between active Group A (4.375 mg 2-(diethylamino)ethyl 2-(4-isobutylphenyl)propionate/knee) and combined placebo, active Group B (8.75 mg 2-(diethylamino)ethyl 2-(4-isobutylphenyl)propionate/knee) and combined placebo, and active Group C (17.5 mg 2-(diethylamino)ethyl 2-(4-isobutylphenyl)propionate/knee) and combined placebo.

[2] = system: osteoarthritis of the knee; assay: Second Phase 2 study: WOMAC overall score; type: in vivo, human
Text: as §1, §2, §3
The Secondary Efficacy Endpoints, change from Baseline in the WOMAC subscale scores for pain, stiffness, and functional ability, and overall WOMAC score at 2, 4, 8, and 12 weeks of treatment, will be analyzed using the same methods as for the Primary Efficacy Endpoint.

[3] = 17.5 mg/knee BID, Week 12, first 130 subjects
[4] = 4.375 mg/knee BID (n = 23), first 130 subjects
[5] = 8.75 mg/knee BID (n = 24), first 130 subjects
[6] = 17.5 mg/knee BID (n = 19), first 130 subjects
[7] = Week 12, 4.375 mg/knee BID (n = 23), first 130 subjects
[8] = Week 12, 8.75 mg/knee BID (n = 24), first 130 subjects
[9] = Week 12, 17.5 mg/knee BID (n = 19), first 130 subjects
[10] = all subjects, 4.375 mg/knee BID, n = 49, Week 12
[11] = all subjects, 8.75 mg/knee BID, n = 54, Week 12
[12] = all subjects, 17.5 mg/knee BID, n = 52, Week 12

For CCN(CC)CCOC(=O)C(C)c1ccc(CC(C)C)cc1 (centres unmarked) [2-(diethylamino)ethyl 2-(4-isobutylphenyl)propionate], the “WOMAC pain, difference from oral ibuprofen (3×400 mg/day)” value [1, 3] was −14.5 mm, the “WOMAC pain, difference from placebo” value [1, 3] was −15.0 mm and the “WOMAC Pain Subscale Score, Day 1, Avg.” value ([1]; Avg. of all patients, blinded, Middle Dose (4 spray/knee, 17.5 mg/knee) Cohort, Day 1) was 61.0. The “WOMAC Pain Subscale Score, Follow-up, Avg.” value ([1]; Avg. of all patients, blinded, Middle Dose (4 spray/knee, 17.5 mg/knee) Cohort, Follow-up) was 38.9, the “WOMAC Pain Subscale Score, Week 2, Avg.” value ([1]; Avg. of all patients, blinded, Middle Dose (4 spray/knee, 17.5 mg/knee) Cohort, Week 2) was 46.0 and the “WOMAC Pain Subscale Score, Week 4, Avg.” value ([1]; Avg. of all patients, blinded, Middle Dose (4 spray/knee, 17.5 mg/knee) Cohort, Week 4) was 40.5. The “WOMAC Pain Subscale Score, Week 8, Avg.” value ([1]; Avg. of all patients, blinded, Middle Dose (4 spray/knee, 17.5 mg/knee) Cohort, Week 8) was 35.9, the “WOMAC Pain Subscale Score, Week 12, Avg.” value ([1]; Avg. of all patients, blinded, Middle Dose (4 spray/knee, 17.5 mg/knee) Cohort, Week 12) was 34.5 and the “WOMAC Pain Subscale Scores, Baseline (LS Mean)” value [1, 4] was 60.0 mm. The “WOMAC Pain Subscale Scores, Baseline (LS Mean)” value [1, 5] was 61.0 mm, the “WOMAC Pain Subscale Scores, Baseline (LS Mean)” value [1, 6] was 64.1 mm and the “WOMAC Pain Subscale Scores, % of improvement from Oral Ibuprofen” value [1, 7] was −9.6%. For the same compound, the “WOMAC Pain Subscale Scores, % of improvement from Placebo” value [1, 7] was −8.7%, the “WOMAC Pain Subscale Scores, % of improvement from baseline” value [1, 7] was −41.8% and the “WOMAC Pain Subscale Scores, Changes from Baseline (LS Mean)” value (“WOMAC Pain Subscale Scores, Changes” below) [1, 7] was −25.7 mm. For the same compound, the “WOMAC Pain Subscale Scores, Different from oral ibuprofen (LS Mean)” value [1, 7] was −4.0 mm, the “WOMAC Pain Subscale Scores, Different from placebo (LS Mean)” value [1, 7] was −4.3 mm and the “WOMAC Pain Subscale Scores, Week 12 (LS Mean)” value [1, 7] was 34.3 mm. The “WOMAC Pain Subscale Scores, % of improvement from Oral Ibuprofen” value [1, 8] was −13.2%, the “WOMAC Pain Subscale Scores, % of improvement from Placebo” value [1, 8] was −12.3% and the “WOMAC Pain Subscale Scores, % of improvement from baseline” value [1, 8] was −45.4%. The “WOMAC Pain Subscale Scores, Changes” value [1, 8] was −27.7 mm, the “WOMAC Pain Subscale Scores, Different from oral ibuprofen (LS Mean)” value [1, 8] was −6.1 mm and the “WOMAC Pain Subscale Scores, Different from placebo (LS Mean)” value [1, 8] was −6.6 mm. The “WOMAC Pain Subscale Scores, Week 12 (LS Mean)” value [1, 8] was 33.3 mm, the “WOMAC Pain Subscale Scores, % of improvement from Oral Ibuprofen” value [1, 9] was −24.3% and the “WOMAC Pain Subscale Scores, % of improvement from Placebo” value [1, 9] was −23.4%. The “WOMAC Pain Subscale Scores, % of improvement from baseline” value [1, 9] was −56.5%, the “WOMAC Pain Subscale Scores, Changes” value [1, 9] was −36.2 mm and the “WOMAC Pain Subscale Scores, Different from oral ibuprofen (LS Mean)” value [1, 9] was −14.5 mm. The “WOMAC Pain Subscale Scores, Different from placebo (LS Mean)” value [1, 9] was −15.0 mm, the “WOMAC Pain Subscale Scores, Week 12 (LS Mean)” value [1, 9] was 27.9 mm and the “WOMAC Pain Subscale Scores, % of improvement from Oral Ibuprofen” value [1, 10] was −0.7%. The “WOMAC Pain Subscale Scores, % of improvement from Placebo” value [1, 10] was −5.2%, the “WOMAC Pain Subscale Scores, % of improvement from baseline” value [1, 10] was −41.9% and the “WOMAC Pain Subscale Scores, Changes” value [1, 10] was −25.6 mm. The “WOMAC Pain Subscale Scores, Week 12 (LS Mean)” value [1, 10] was 35.5 mm, the “WOMAC Pain Subscale Scores, % of improvement from Oral Ibuprofen” value [1, 11] was −4.9% and the “WOMAC Pain Subscale Scores, % of improvement from Placebo” value [1, 11] was −9.4%. The “WOMAC Pain Subscale Scores, % of improvement from baseline” value [1, 11] was −46.1%, the “WOMAC Pain Subscale Scores, Changes” value [1, 11] was −28.6 mm and the “WOMAC Pain Subscale Scores, Different from oral ibuprofen (LS Mean)” value [1, 11] was −3.2 mm. The “WOMAC Pain Subscale Scores, Different from placebo (LS Mean)” value [1, 11] was −6.0 mm, the “WOMAC Pain Subscale Scores, Week 12 (LS Mean)” value [1, 11] was 33.4 mm and the “WOMAC Pain Subscale Scores, % of improvement from Oral Ibuprofen” value [1, 12] was −9.8%. The “WOMAC Pain Subscale Scores, % of improvement from Placebo” value [1, 12] was −14.3%, the “WOMAC Pain Subscale Scores, % of improvement from baseline” value [1, 12] was −51.0% and the “WOMAC Pain Subscale Scores, Changes” value [1, 12] was −31.7 mm. The “WOMAC Pain Subscale Scores, Different from oral ibuprofen (LS Mean)” value [1, 12] was −6.3 mm, the “WOMAC Pain Subscale Scores, Different from placebo (LS Mean)” value [1, 12] was −9.1 mm and the “WOMAC Pain Subscale Scores, Week 12 (LS Mean)” value [1, 12] was 30.5 mm. The “WOMAC overall, difference from oral ibuprofen” value [2, 3] was −15.2 mm, the “WOMAC overall, difference from placebo” value [2, 3] was −18.2 mm and the “efficacy vs oral ibuprofen (3×400 mg/day)” value ([2]; 17.5 mg/knee BID, all subjects) was “higher efficacy than oral ibuprofen (3×400 mg/day), but not significantly”. For the same compound, the efficacy vs placebo ([2]; 17.5 mg/knee BID, all subjects) was “higher efficacy than placebo significantly”, the “WOMAC Overall Scores, Baseline (LS Mean)” value [2, 4] was 59.3 mm and the “WOMAC Overall Scores, Baseline (LS Mean)” value [2, 5] was 60.7 mm. The “WOMAC Overall Scores, Baseline (LS Mean)” value [2, 6] was 63.4 mm, the “WOMAC Overall Scores, % of improvement from Oral Ibuprofen” value [2, 7] was −10.1% and the “WOMAC Overall Scores, % of improvement from baseline” value [2, 7] was −43.2%. The “WOMAC Overall Scores, % of improvement from placebo” value [2, 7] was −13.0%, the “WOMAC Overall Scores, Changes from Baseline (LS Mean)” value (“WOMAC Overall Scores, Changes” below) [2, 7] was −25.6 mm and the “WOMAC Overall Scores, Different from oral ibuprofen (LS Mean)” value [2, 7] was −4.1 mm. For the same compound, the “WOMAC Overall Scores, Different from placebo (LS Mean)” value [2, 7] was −7.1 mm, the “WOMAC Overall Scores, Week 12 (LS Mean)” value [2, 7] was 33.8 mm and the “WOMAC Overall Scores, % of improvement from Oral Ibuprofen” value [2, 8] was −11.8%. The “WOMAC Overall Scores, % of improvement from baseline” value [2, 8] was −45.1%, the “WOMAC Overall Scores, % of improvement from placebo” value [2, 8] was −14.9% and the “WOMAC Overall Scores, Changes” value [2, 8] was −27.4 mm. The “WOMAC Overall Scores, Different from oral ibuprofen (LS Mean)” value [2, 8] was −5.9 mm, the “WOMAC Overall Scores, Different from placebo (LS Mean)” value [2, 8] was −9.0 mm and the “WOMAC Overall Scores, Week 12 (LS Mean)” value [2, 8] was 33.3 mm. The “WOMAC Overall Scores, % of improvement from Oral Ibuprofen” value [2, 9] was −24.6%, the “WOMAC Overall Scores, % of improvement from baseline” value [2, 9] was −57.7% and the “WOMAC Overall Scores, % of improvement from placebo” value [2, 9] was −27.5%. For the same compound, the “WOMAC Overall Scores, Changes” value [2, 9] was −36.6 mm, the “WOMAC Overall Scores, Different from oral ibuprofen (LS Mean)” value [2, 9] was −15.2 mm and the “WOMAC Overall Scores, Different from placebo (LS Mean)” value [2, 9] was −18.2 mm. For the same compound, the “WOMAC Overall Scores, Week 12 (LS Mean)” value [2, 9] was 26.8 mm and the “WOMAC Overall Scores, % of improvement from Oral Ibuprofen” value [2, 10] was −1.5%.
